For twelve molecules, EC50 and IC50 results are on record in US20260027118A1, “COMPOSITIONS USEFUL FOR MODULATING SPLICING” (Skyhawk Therapeutics, Inc., priority 2022, published 2026).

The test system of assay [1] is ATXN3-HiBiT protein. Put plainly: ATXN3 HiBiT assay (Nano Glo HiBiT luminescence). The format is cell-based. Conditions: Kelly-ATXN3-HiBiT cells, luminescence read out 48 h after addition of the compound. An excerpt:
To monitor ATXN3 protein levels by luminescence, a Kelly-ATXN3-HiBiT cell line with homozygous knock-in of HiBiT at the C-terminus of the endogenous ATXN3 gene was used (knock-in of the HiBiT-tag coding sequence SEQ ID NO. 14: 5′[…]3′ into exon 11 of ATXN3 -position 1114 of ATXN3 RefSeq NM_004993.6). Manipulations of the Kelly-ATXN3-HiBiT cell line that result in downregulation of the ATXN3-HiBiT protein (through modulation of ATXN3-HiBiT pre-mRNA splicing) can be followed by monitoring the luminescence signal of the HiBiT tag using the Nano Glo HiBiT Lytic Detection System (Promega, #N3050). Kelly-ATXN3-HiBiT cells were maintained in RPMI 1640 w/Glutamax (Gibco, #61870010), 10% FBS (Sigma Aldrich, #F8687), 1% Penicillin/Streptomycin (Gibco, #15140-122) at 37° C., 5% CO2. To assess HiBiT-luminescence signal upon compound treatment, 2000 Kelly-ATXN3-HiBiT cells were seeded per well in 384 plate format. Compounds were added 24 h after seeding. ATXN3-HiBiT-luminescence signal was read out 48 h after addition of the compound using the Nano Glo HiBiT Lytic Detection System (Promega, #N3050) according to the manufacturer's instructions. To control for cell viability, an identically prepared sister plate was read out with the CellTiter-Glo® 2.0 Assay (Promega, #G9243) according to the manufacturer's instructions. Fold changes of ATXN3-HiBiT-luminescence and of CellTiter-Glo viability signals were calculated relative to a DMSO control condition.

The test system of assay [2] is total ATXN3 protein. Put plainly: ATXN3 total protein assay (Mesoscale Discovery). The format is cell-based, Human. Conditions: SK-N-MC cells, 48 hours incubation, MSD assay. The protocol:
Human neuroblastoma SK-N-MC cells were seeded at 10,000 cells/well in 384 well plates one day prior to compound treatment. The concentrations of compounds were tested at appropriate doses ranging from 30 μM to 0.6 nM. After incubation for 48 hours, the cells were lysed with 25 μL of lysis buffer containing protease inhibitors, and total ATXN3 protein levels were assessed by Mesoscale Discovery (MSD) assay developed with one pair of anti-ATXN3 antibodies. The capture and detect antibodies were raised in mouse and rabbit respectively. Anti-rabbit MSD-ST antibody was used for secondary antibody. ATXN3 recombinant protein was used for standards. The readouts were captured with 35 μL of MSD read buffer and multi-array 384-well high binding plates.

Assay [3] has as its system ATXN3 transcripts containing exon 4. Put plainly: ATXN3 Quantitative Splicing Assay (qPCR, E4E5 primers/probe). The conditions noted are these: Homo sapiens; SK-N-MC cells, treated with compounds for 24 h, qPCR of transcripts containing exon 4. The assay is classed as cell-based, Human. How it is done: Human neuroblastoma SK-N-MC cells were plated in 384-well plates at 20,000 cells/well. Twenty-four hours after plating, cells were treated with compounds for 24 h at appropriate concentrations ranging from 30.M to 0.6 nM (0.300 DMS0). Treated cells were lysed in 15 μL of lysis buffer, and cDNA was synthesized using the Fast Advanced Cells-to-Ct kit. Two μL of each cDNA was used in qPCR reactions to confirm the exon 4 skipped transcripts of ATXN3. A second set of primers/probe E4E5 was used to detect the transcripts containing exon 4. The third set of primers/probe E8E9 was used to detect total gene level of ATXN3. The qPCR reactions were prepared in 384-well plates in 10 μL volume, using TaqMan™ Fast Advanced Master Mix with primers and probes shown in the table below. Reactions were run in a Quant Studio 6 qPCR instrument with default settings.
The primers and probes are listed below in Table 4.

For the molecule `CC#Cc1cc(NCc2cccs2)c2oc(C[C@@H](N)C3CC(F)(F)C3)c(C#CC)c2n1` [Compound 23, 2-[(R)-2-amino-2-(3,3-difluorocyclobutyl)ethyl]-3,5-bis(1-propynyl)-7-thenylamino-1-oxa-4-azaindene], in assay [1], the EC50 was 501 to 5000 nM. The IC50 lay within 10000 to 40000 nM in assay [2] and 5000 to 10000 nM in assay [3].
The like results for `CC#Cc1c(C[C@@H](N)C2CC2)oc2c(NCc3cccs3)cc(Cl)nc12` [Compound 24, 2-[(R)-2-amino-2-cyclopropylethyl]-5-chloro-3-(1-propynyl)-7-thenylamino-1-oxa-4-azaindene] were, in that order, 501 to 5000 nM, 501 to 5000 nM and 501 to 5000 nM.
As to `CC#Cc1cc(NCc2cccs2)c2oc(C[C@@H](N)C3CC3)c(C#CC)c2n1` [Compound 25, 2-[(R)-2-amino-2-cyclopropylethyl]-3,5-bis(1-propynyl)-7-thenylamino-1-oxa-4-azaindene], the EC50 in assay [1] was 5000 to 10000 nM. Further, the IC50 in assay [2] and in assay [3] was 10000 to 40000 nM each time.
Molecule `C[C@H](N)Cc1oc2c(NCc3cccs3)cc(Cl)nc2c1C#CCO` [Compound 26, 3-{2-[(S)-2-aminopropyl]-5-chloro-7-thenylamino-1-oxa-4-aza-3-indenyl}-2-propyn-1-ol] gave an EC50 in assay [1] of 101 to 500 nM. Further, the half-maximal inhibitory concentration (IC50) was 501 to 5000 nM in assay [2] and 101 to 500 nM in assay [3].
In the case of `C[C@H](N)Cc1oc2c(NCc3ccco3)cc(Cl)nc2c1C#CCO` [Compound 27, 3-{2-[(S)-2-aminopropyl]-5-chloro-7-(furfurylamino)-1-oxa-4-aza-3-indenyl}-2-propyn-1-ol], the EC50 in assay [1] lay in the range of 501 to 5000 nM. Also, the IC50 in assay [2] and in assay [3] was 501 to 5000 nM each time.
As for `CC#Cc1cc(NCc2cccs2)c2oc(C[C@H](C)N)c(C#CC)c2n1` [Compound 28, 2-[(2S)-2-aminopropyl]-3,5-bis(prop-1-yn-1-yl)-N-(thiophen-2-ylmethyl)furo[3,2-b]pyridin-7-amine], the EC50 in assay [1] lay in the range of 501 to 5000 nM. In addition, the IC50 in assay [2] and in assay [3] was 501 to 5000 nM each time.
For `CC#Cc1c(C(F)(F)[C@H](C)N)oc2c(NCc3cccs3)nc(Cl)nc12` [Compound 33, 2-[(S)-2-amino-1,1-difluoropropyl]-5-chloro-3-(1-propynyl)-7-thenylamino-1-oxa-4,6-diazaindene], in assay [1], the EC50 lay in the range of 101 to 500 nM. In addition, the results for the half-maximal inhibitory concentration (IC50) in assay [2] and in assay [3] were 501 to 5000 nM and 101 to 500 nM, respectively.
For `CC#Cc1c(C[C@H](C)N)oc2c(NCc3cccs3)c(F)c(Cl)nc12` [Compound 36], the EC50 in assay [1] lay in the range of 501 to 5000 nM. Also, the IC50 in assay [2] and in assay [3] was 501 to 5000 nM each time.
As for `CC#Cc1c(C[C@@H](N)COC)oc2c(NCc3nccs3)cc(Cl)nc12` [Compound 38, 2-[(R)-2-amino-3-methoxypropyl]-5-chloro-3-(1-propynyl)-7-{[(1,3-thiazol-2-yl)methyl]amino}-1-oxa-4-azaindene], the EC50 in assay [1] lay in the range of 101 to 500 nM. Also, the IC50 in assay [2] and in assay [3] was 101 to 500 nM in each case.
In assay [1], `CC#Cc1c(C[C@@H](N)COC)oc2c(NCc3ccco3)cc(Cl)nc12` [Compound 39, 2-[(R)-2-amino-3-methoxypropyl]-5-chloro-7-(furfurylamino)-3-(1-propynyl)-1-oxa-4-azaindene] registered an EC50 of 0.01 to 100 nM. The IC50 lay within 0.01 to 100 nM in assay [2] and 101 to 500 nM in assay [3].
Molecule `CC#Cc1c(C[C@@H](N)[C@H](C)F)oc2c(NCc3ccco3)nc(Cl)nc12` [Compound 41, 2-[(2R,3S)-2-amino-3-fluorobutyl]-5-chloro-7-(furfurylamino)-3-(1-propynyl)-1-oxa-4,6-diazaindene] registered an EC50 in assay [1] of 0.01 to 100 nM. For the same molecule, the IC50 in assay [2] and in assay [3] was 0.01 to 100 nM throughout.
Molecule `[2H]C([2H])(OC)[C@H](N)Cc1oc2c(NCc3cccs3)cc(Cl)nc2c1C#CC` [Compound 46, 2-[(R)-2-amino-3-methoxy(3,3- ^2H2)propyl]-5-chloro-3-(1-propynyl)-7-thenylamino-1-oxa-4-azaindene] came in with an EC50 in assay [1] of 0.01 to 100 nM. The IC50 lay in the range of 101 to 500 nM in assay [2] and 0.01 to 100 nM in assay [3].
